How the values were obtained:
[1] = system: B16V mouse melanoma cells; assay: B16V mouse melanoma cell test, melanin content after alpha-MSH stimulation; type: cell-based; details: DMSO blank = 100, DMSO + alpha-MSH = 235
Procedure: B16V mouse melanoma cells (manufacturer: DSMZ; Article No.: ACC370) are transferred into RPMI medium (Invitrogen, Article No.: 31870), to which 10% of FBS (foetal bovine serum; Invitrogen, Article No.: 10499044), 2 mM L-glutamine (Invitrogen, Article No: 25030) and 1 mM sodium pyruvate (Invitrogen, Article No.: 11360) had additionally been added, and incubated at 37° C. and 5% CO2 for 72 h. The medium is separated off, and the cells are washed once with 10 ml of DPBS (Dulbecco's phosphate-buffered salines; Invitrogen, Article No.: 14190), and the medium is subsequently removed by suction. 1 ml of HyQtase cell detachment solution (Hyclone, Article No.: SV30030.01) is added to the cells. The bottle is swirled a number of times, and the HyQtase cell detachment solution is subsequently removed by suction. The cells are then incubated in the incubator at 37° C. and 5% CO2 for 5 min. The cells are taken up in the modified RPMI medium (see above), and the cell count is determined. To this end, the cells are stained with Trypan Blue and counted in a Neubauer counting chamber. The cells are subsequently sown out again in the modified RPMI medium (see above) in a defined cell count of 80,000 cells per well (6-well clear plate, TCT, PS (Nunc)).
The cells are incubated at 37° C. and 5% CO2 for 24 h, the medium is then removed. 1980 μl of the substance dilution are subsequently added. […]
After the final incubation period, the medium is removed by suction, and the cells are washed with 1000 μl of DPBS (Invitrogen, Article No.: 14190). […] The cell count is subsequently determined. To this end, the cells are stained with Trypan Blue and counted in a Neubauer counting chamber. […] Four times 200 μl per cup (as quadruple determination) are subsequently pipetted into a 96-well plate (VWR, Article No.: 4100636981), and the absorption at a wavelength of 405 nm is determined (Safire, Tecan). The content of melanin can be determined in this way by means of a calibration line.

[2] = system: normal human epidermal melanocytes (NHEM); assay: Melanogenesis assay with human primary cells; type: cell-based; details: 10 days incubation, DMSO control = 100, concentration not given
Procedure: An ampoule of normal human epidermal melanocytes (NHEM, Promocell) is thawed and divided into further bottles depending on the number of their duplicates. After 2 to 3 weeks, between 750,000 and one million cells are transferred into T25 bottles with 5 ml of full medium. After 24 hours, the medium is removed and replaced by corresponding substance dilutions or controls. The overall duration of the incubation of the various test substances on the cells is 10 days. During these 10 days, the substance dilutions or controls are replaced every 2-3 days. After 10 days, the melanocytes are harvested. 500 μl of trypsin/EDTA is added to the cells and immediately removed again by suction. The cells are subsequently taken up in medium, counted and centrifuged off. The supernatant is removed, the pellet is washed with DPBS and centrifuged again. A photo of this pellet is taken. The pellet is then taken up in 1 ml of NaOH (1 M) and incubated in a shaker at 80° C. for one hour. The solution, cooled to room temperature, is pipetted into a 96-well plate (4×200 μl), and the absorption at 405 nm is measured. The values measured are subsequently plotted in percent against the control.

Row | Compound | Relative melanin content in % ([1]; 0.05 mM + alpha-MSH (10^-8 M)) [%] | Relative melanin content in % ([1]; 0.1 mM + alpha-MSH (10^-8 M)) [%] | Relative melanin content in % [2] [%] | Relative melanin content in % ([1]; 1 mM + alpha-MSH (10^-8 M)) [%]
1 | O=C(c1ccco1)C(O)c1ccco1 (stereo not shown) [2,2′-Furoin, 2,2′-furoin] | 88.0 | 63.1 | 72.9 | –
2 | O=c1cc(CO)occ1O [Kojic acid, reference compound] | – | – | – | 96
